We go through two molecules from patent US20240024494A1, “SMALL-MOLECULE CONJUGATE AND USE THEREOF” (SHANGHAI MEWSGEN BIOTECHNOLOGY CO., LTD, priority 2020, published 2024).

The test system of experiment [1] is MGC803 (human gastric cancer cells). In words: Tumor cell proliferation inhibition test, CCK-8 method (Example 21). It counts as cell-based. As to conditions: Homo sapiens, MGC-803; CCK-8, 72 h, Table 3; read-out: IC50 MGC803. On the procedure: (§1) A part of the compounds prepared in the examples of the present disclosure were subjected to a tumor cell proliferation inhibition test by using a CCK-8 method. Cell lines HCT116 (human colon cancer cells), MGC803 (human gastric cancer cells), and MIA PACA-2 (human pancreatic cancer cells) were purchased from Shanghai Meixuan Technology Co., Ltd. Samples (a part of the compounds prepared in the examples) were dissolved in DMSO (Merck), prepared into a concentration of 10 mM, and finally triply diluted in DMEM or McCoy's 5A 1640 medium to 8 concentration gradients. A cell culture solution was collected when a cell culture met a test requirement, 10 μL of the cell culture solution was uniformly coated on a cell counting plate, cells were counted for 3 times under a microscope, and a cell density was calculated by taking an average value; and a 96-well plate (Corning, #3599) was taken, 200 μL of the cell culture solution was added into each well for cell inoculation at a cell concentration of 6×10^3 cells per well, and the inoculated 96-well plate was incubated in a cell incubator containing 5% CO2 at 37° C. for 24 h. An old culture medium was removed by suction, 200 μL of the triply diluted sample DMEM or McCoy's 5A 1640 medium at an initial concentration of 10 μmol/L was added to each well, the DMSO content was controlled to be 1%, three duplicate wells were set, PBS was used as a blank control, and the plate was incubated in the incubator for 72 h. The original DMEM or McCoy's 5A 1640 medium in the 96-well plate and a PBS buffer in a final row were sucked out, a prepared CCK-8 solution (90% DMEM or McCoy's 5A 1640 medium+10% CCK-8) was added, the mixture was incubated in an incubator, and an absorbance was read by using a Biotek microplate reader. Cell growth inhibition rate IC %=(blank control well OD value−administration well OD value)/blank control well OD value×100%.

Experiment [2] deals with MIA PACA-2 (human pancreatic cancer cells). The description is as above. As to conditions: Homo sapiens, MIA PaCa-2; CCK-8, 72 h, Table 3; read-out: IC50 MIA PACA-2. It counts as cell-based. On the procedure:
as §1

For experiment [3], the system named is HCT116 (human colon cancer cells). The experiment is described as above. The class given is cell-based. Conditions: Homo sapiens, HCT-116; CCK-8, 72 h, Table 3; read-out: IC50 HCT116. The method, then:
as §1

In experiment [4] the test system is tumor cell strains (colon cancer, pancreatic cancer, esophageal squamous carcinoma, gastric cancer, glioma). Nature of the experiment: Summary of in-vitro proliferation inhibition on tumor cell strains (Examples 19-21). It counts as cell-based, human. The method, then: as §1, with “A cell line” for “Cell lines”, “carcinoma cells)” for “cancer cells), MGC803 (human gastric cancer cells),”, “SW1990” for “MIA PACA-2”, “carcinoma” for “cancer”
(§2) In-vitro activity test: 100 μL of a cell suspension at a concentration of 4-5×10^4/mL was added to each well of a 96-well plate, and placed in a 5% CO2 incubator at 37° C. After 24 h, a sample solution was added at 10 μL/well, double duplicate wells were set, and a reaction was performed at 37° C. with 5% CO2 for 72 h. 20 μL of 5 mg/ml of an MTT solution was added into each well and reacted for 4 h, a dissolving solution was added at 100 μL/well, the mixture was placed in an incubator, and after dissolution, an OD value at 570 nm was measured with a full-wavelength multifunctional microplate reader. An inhibition rate (IR) and a median inhibitory concentration (IC50) were calculated by using an Excel software.
A part of the compounds prepared in the examples of the present disclosure were subjected to a tumor cell proliferation inhibition test by using a CCK-8 method. Cell lines HCT116 (human colon cancer cells), MGC803 (human gastric cancer cells), and MIA PACA-2 (human pancreatic cancer cells) were purchased from Shanghai Meixuan Technology Co., Ltd. Samples (a part of the compounds prepared in the examples) were dissolved in DMSO (Merck), prepared into a concentration of 10 mM, and finally triply diluted in DMEM or McCoy's 5A 1640 medium to 8 concentration gradients. A cell culture solution was collected when a cell culture met a test requirement, 10 μL of the cell culture solution was uniformly coated on a cell counting plate, cells were counted for 3 times under a microscope, and a cell density was calculated by taking an average value; and a 96-well plate (Corning, #3599) was taken, 200 μL of the cell culture solution was added into each well for cell inoculation at a cell concentration of 6×10^3 cells per well, and the inoculated 96-well plate was incubated in a cell incubator containing 5% CO2 at 37° C. for 24 h. […]

The test system of experiment [5] is KYSE-150 (human esophageal squamous carcinoma cells). The class given is cell-based. Conditions: 72 h.
Text: A part of the compounds of the examples of the present disclosure were subjected to a tumor cell proliferation inhibition test by using an MTT method (e.g. Pharmacological Research Method of New Drug, 2007: 242-243, edited by Lu Qiujun).
A cell strain was selected from KYSE-150 (human esophageal squamous carcinoma cells), MGC803 (human gastric carcinoma cells), and SHG44 (human glioma cells), and frozen and passaged by a pharmacological laboratory of Shanghai Institute of Pharmaceutical Industry. A culture solution was DMEM+10% FBS+double antibody.
as §2
The inhibition rate (IR %) of the drug on cell growth was calculated according to the following equation: […]

In a further experiment the target is hERG potassium channel (Homo sapiens, UniProt Q12809). In words: cell-based.
Sequence of hERG potassium channel (Q12809 whole entry): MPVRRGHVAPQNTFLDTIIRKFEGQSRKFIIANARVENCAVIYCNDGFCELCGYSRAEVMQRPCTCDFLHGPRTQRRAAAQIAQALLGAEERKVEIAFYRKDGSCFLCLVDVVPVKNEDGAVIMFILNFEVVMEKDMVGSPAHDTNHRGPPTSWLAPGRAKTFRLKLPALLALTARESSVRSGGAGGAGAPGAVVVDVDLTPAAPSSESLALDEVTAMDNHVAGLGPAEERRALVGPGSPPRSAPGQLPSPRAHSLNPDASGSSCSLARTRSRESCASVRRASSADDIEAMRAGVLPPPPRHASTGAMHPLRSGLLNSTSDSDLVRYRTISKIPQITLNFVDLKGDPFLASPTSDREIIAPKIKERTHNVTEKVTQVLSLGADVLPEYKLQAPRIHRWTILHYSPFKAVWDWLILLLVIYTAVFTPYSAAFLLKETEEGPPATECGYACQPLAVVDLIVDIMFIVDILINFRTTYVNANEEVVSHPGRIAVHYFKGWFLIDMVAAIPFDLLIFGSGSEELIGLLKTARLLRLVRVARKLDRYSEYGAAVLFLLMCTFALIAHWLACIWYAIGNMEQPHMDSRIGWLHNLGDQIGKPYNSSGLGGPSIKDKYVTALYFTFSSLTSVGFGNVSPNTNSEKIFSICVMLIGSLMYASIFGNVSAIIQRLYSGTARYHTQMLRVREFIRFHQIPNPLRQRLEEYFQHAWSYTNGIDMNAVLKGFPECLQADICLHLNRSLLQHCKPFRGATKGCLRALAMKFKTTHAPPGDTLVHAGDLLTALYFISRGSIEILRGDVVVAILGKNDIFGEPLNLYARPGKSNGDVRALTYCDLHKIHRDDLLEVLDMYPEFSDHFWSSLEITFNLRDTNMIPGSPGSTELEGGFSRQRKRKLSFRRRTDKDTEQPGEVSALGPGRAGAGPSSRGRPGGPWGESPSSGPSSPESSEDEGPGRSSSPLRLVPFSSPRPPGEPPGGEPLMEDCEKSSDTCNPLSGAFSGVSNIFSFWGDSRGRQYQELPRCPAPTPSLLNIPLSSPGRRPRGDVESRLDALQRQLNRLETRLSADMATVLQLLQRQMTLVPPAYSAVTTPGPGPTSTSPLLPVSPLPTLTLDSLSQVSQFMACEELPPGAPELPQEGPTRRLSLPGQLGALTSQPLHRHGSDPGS

Method for hERG potassium channel: CHO-hERG cells were cultured in a 175-cm^2 culture flask. After a cell density reached a culture solution was removed, and the cells were washed once with 7 mL of phosphate buffered saline (PBS) and digested with 3 mL of detachin. After the complete digestion, 7 mL of a culture solution was added for neutralization, the mixture was centrifuged, a supernatant was sucked away, and then 5 mL of the culture solution was added for resuspension so as to ensure that the cell density was 2-5×10^6/mL.
Forming processes of single-cell high-impedance sealing and whole-cell mode were both automatically completed by a Qpatch instrument. After a whole-cell recording mode was obtained, cells were clamped at −80 millivolts. Before a depolarization stimulation of +40 millivolt for 5 seconds was given, a preset voltage of −50 millivolts was firstly given for 50 milliseconds, then repolarization was performed to −50 millivolt and maintained for 5 seconds, and then the voltage returned to −80 millivolts. […] At least 3 cells (n≥3) were tested per concentration.
20 mM of a compound stock was diluted in DMSO, and 10 μL of 20 mM of the compound stock was added to 20 μL of a DMSO solution and triply serially diluted to 6 DMSO concentrations. […] Experimental data was analyzed by a GraphPad Prism 5.0 software.

As to `COc1cc(C(=O)O)ccc1NC(=O)[C@@H]1N[C@@H](CC(C)(C)C)[C@](C#N)(c2ccc(Cl)cc2F)[C@H]1c1cccc(Cl)c1F` [Idasanutlin, reference compound], the results for the IC50 in experiment [1], in experiment [2] and in experiment [3] were 1.09 µM, greater than 10 µM and 0.11 µM, respectively.

With `COc1cc(C(=O)NCCOCCOCCOCCOCCC(=O)N[C@@H](C(=O)N[C@@H](CCCNC(N)=O)C(=O)Nc2ccc(COC(=O)N3CCN(C(=O)O[C@H]4CC[C@@]5(C)[C@H](CC[C@@H]6[C@@H]5[C@H](O)C(=O)[C@]5(C)[C@@H](c7ccc(=O)oc7)CC[C@]65O)C4)CC3)cc2)C(C)C)ccc1NC(=O)[C@@H]1N[C@@H](CC(C)(C)C)[C@](C#N)(c2ccc(Cl)cc2F)[C@H]1c1cccc(Cl)c1F` [Compound I-1], in experiment [4], the “Proliferation inhibition activities IC50 on most tumor cell strains (in words)” value was “between several to hundreds of nanomoles”. In addition, the IC50 in experiment [5] was 0.04 µM; against hERG potassium channel, greater than 40 µM.

In general, IC50 refers to the midpoint of a concentration-inhibition curve.
